*1 amine or outer side, *2 acyl side, *3 side chain or, on linkers, in order; H or OH if unused. Where a SMILES comes first, the peptide text is derived from it. Side-chain parts run from the residue outwards. [ ]: non-standard residue; d: D form. The star is where a group is joined. γGlu = O=C(O)[C@H](CCC(=O)[*:2])N[*:1]; Desaminohistidyl = O=C(CCc1c[nH]cn1)*; Aib = CC(C)(N)C(=O)O
Assay: physchem
Type: physicochemical
Conditions: pH 7.5
Excerpt: Assay (III): ThT Fibrillation Assay for the Assessment of Physical Stability of Peptide Compositions The purpose of this assay is to assess the physical stability of the glucagon derivatives of the invention in aqueous solutions. Low physical stability of a peptide may lead to amyloid fibril formation, which is observed as well-ordered, thread-like macromolecular structures in the sample, which eventually may lead to gel formation. This has traditionally been measured by visual inspection of the sample. However, that kind of measurement is very cumbersome and depending on the observer. Therefore, the application of a small molecule indicator probe is much more advantageous. Thioflavin T (ThT) is such a probe and has a distinct fluorescence signature when binding to fibrils [Naiki et al. (1989) Anal. Biochem. 177, 244-249; LeVine (1999) Methods. Enzymol. 309, 274-284]. Here, as depicted in FIG. 1, F is the ThT fluorescence at the time t. The constant t0 is the time needed to reach 50% of maximum fluorescence. The two important parameters describing fibril formation are the lag-time calculated by t0−2τ and the apparent rate constant kapp 1/τ. Samples were prepared freshly before each assay. Each sample composition is described in the legends. The pH of the sample was adjusted to the desired value using appropriate amounts of concentrated NaOH and HCl. Thioflavin T was added to the samples from a stock solution in H2O to a final concentration of 1 μM. Sample aliquots of 200 μl (250 μM of the glucagon derivative/analogue in 10 mM HEPES buffer, pH 7.5) were placed in a 96 well microtiter plate (Packard OptiPlate™-96, white polystyrene). Usually, four or eight replica of each sample (corresponding to one test condition) was placed in one column of wells. The plate was sealed with Scotch Pad (Qiagen). Incubation at given temperature, shaking and measurement of the ThT fluorescence emission were done in a Fluoroskan Ascent FL fluorescence platereader (Thermo Labsystems). The plate was incubated 37° C. with orbital shaking adjusted to 960 rpm with an amplitude of 1 mm. Fluorescence measurement was done using excitation through a 444 nm filter and measurement of emission through a 485 nm filter. Each run was initiated by incubating the plate at the assay temperature for 10 min. The plate was measured every 20 minutes for a desired period of time. Between each measurement, the plate was shaken and heated as described. After completion of the ThT assay the four or eight replica of each sample was pooled and centrifuged at 20000 rpm for 30 minutes at 18° C. The supernatant was filtered through a 0.22 μm filter and an aliquot was transferred to a HPLC vial. The concentration of peptide in the initial sample and in the filtered supernatant was determined by reverse phase HPLC using an appropriate standard as reference. The percentage fraction the concentration of the filtered sample constituted of the initial sample concentration was reported as the recovery. The measurement points were saved in Microsoft Excel format for further processing and curve drawing and fitting was performed using GraphPad Prism. The background emission from ThT in the absence of fibrils was negligible. The data points were typically a mean of four or eight samples and shown with standard deviation error bars. Only data obtained in the same experiment (i.e. samples on the same plate) were presented in the same graph ensuring a relative measure of fibrillation between experiments. The data set may be fitted to Eq. (1).

| Compound | recovery at 250 μM |
| --- | --- |
| CC(=O)N[C@@H](CCC(=O)N[C@@H](CCC(=O)N[C@@H](CCC(=O)N[C@@H](CCC(=O)NCCCC[C@H](NC(=O)[C@@H](NC(=O)[C@H](Cc1ccccc1)NC(=O)[C@H](CC(=O)O)NC(=O)[C@H](CCC(N)=O)NC(=O)[C@H](C)NC(=O)[C@H](CCCNC(=N)N)NC(=O)[C@H](CCCNC(=N)N)NC(=O)[C@H](CO)NC(=O)[C@H](CCC(=O)O)NC(=O)[C@H](CC(C)C)NC(=O)[C@H](Cc1ccc(O)cc1)NC(=O)[C@H](CCCCN)NC(=O)[C@H](CO)NC(=O)[C@H](CC(C)C)NC(=O)[C@H](CC(=O)O)NC(=O)[C@H](CO)NC(=O)[C@@H](NC(=O)[C@H](Cc1ccccc1)NC(=O)[C@@H](NC(=O)CNC(=O)[C@H](Cc1c[nH]cn1)NC(=O)C(C)(C)NC(=O)CCc1c[nH]cn1)[C@@H](C)O)[C@@H](C)O)C(C)C)C(=O)N[C@@H](Cc1c[nH]c2ccccc12)C(=O)N[C@@H](CC(C)C)C(=O)N[C@@H](CC(C)C)C(=O)N[C@@H](CO)C(=O)N[C@H](C(=O)O)[C@@H](C)O)C(=O)O)C(=O)O)C(=O)O)C(=O)O [Example 3, N^ϵ24-[(4S)-4-[[(4S)-4-[[(4S)-4-[[(4S)-4-acetamido-4-carboxybutanoyl]amino]-4-carboxybutanoyl]amino]-4-carboxybutanoyl]amino]-4-carboxybutanoyl]-[Imp1, Aib2, His3, Leu10, Glu15, Lys24, Leu27, Ser28]-Glucagon] (Desaminohistidyl-[Aib]HGTFTSDLSKYLESRRAQDFVK([γGlu-γGlu-γGlu-γGlu-Ac])WLLST-OH) | 100% |
| CC(=O)N[C@@H](CCC(=O)N[C@@H](CCC(=O)N[C@@H](CCC(=O)N[C@@H](CCC(=O)NCCCC[C@H](NC(=O)[C@@H](NC(=O)[C@H](Cc1ccccc1)NC(=O)[C@H](CC(=O)O)NC(=O)[C@H](CCC(N)=O)NC(=O)[C@H](C)NC(=O)[C@H](CCCNC(=N)N)NC(=O)[C@H](CCCNC(=N)N)NC(=O)[C@H](CO)NC(=O)[C@H](CCC(=O)O)NC(=O)[C@H](CC(C)C)NC(=O)[C@H](Cc1ccc(O)cc1)NC(=O)[C@H](CCCCN)NC(=O)[C@H](CO)NC(=O)[C@H](Cc1ccc(O)cc1)NC(=O)[C@H](CC(=O)O)NC(=O)[C@H](CO)NC(=O)[C@@H](NC(=O)[C@H](Cc1ccccc1)NC(=O)[C@@H](NC(=O)CNC(=O)[C@H](Cc1c[nH]cn1)NC(=O)[C@H](CO)NC(=O)CCc1c[nH]cn1)[C@@H](C)O)[C@@H](C)O)C(C)C)C(=O)N[C@@H](Cc1c[nH]c2ccccc12)C(=O)N[C@@H](CC(C)C)C(=O)N[C@@H](CC(C)C)C(=O)N[C@@H](CO)C(=O)N[C@H](C(=O)O)[C@@H](C)O)C(=O)O)C(=O)O)C(=O)O)C(=O)O [Example 5, N^ϵ24-[(4S)-4-[[(4S)-4-[[(4S)-4-[[(4S)-4-acetamido-4-carboxybutanoyl]amino]-4-carboxybutanoyl]amino]-4-carboxybutanoyl]amino]-4-carboxybutanoyl]-[Imp1, His3, Glu15, Lys24, Leu27, Ser28]-Glucagon] (Desaminohistidyl-SHGTFTSDYSKYLESRRAQDFVK([γGlu-γGlu-γGlu-γGlu-Ac])WLLST-OH) | 100% |
| CC(=O)N[C@@H](CCC(=O)N[C@@H](CCC(=O)N[C@@H](CCC(=O)N[C@@H](CCC(=O)NCCCC[C@H](NC(=O)[C@H](CCC(=O)O)NC(=O)[C@H](CC(C)C)NC(=O)[C@H](Cc1ccc(O)cc1)NC(=O)[C@H](CCCCN)NC(=O)[C@H](CO)NC(=O)[C@H](Cc1ccc(O)cc1)NC(=O)[C@H](CC(=O)O)NC(=O)[C@H](CO)NC(=O)[C@@H](NC(=O)[C@H](Cc1ccccc1)NC(=O)[C@@H](NC(=O)CNC(=O)[C@H](Cc1c[nH]cn1)NC(=O)[C@H](CO)NC(=O)CCc1c[nH]cn1)[C@@H](C)O)[C@@H](C)O)C(=O)N[C@@H](CCCNC(=N)N)C(=O)N[C@@H](CCCNC(=N)N)C(=O)N[C@@H](C)C(=O)N[C@@H](CCC(N)=O)C(=O)N[C@@H](CCC(=O)O)C(=O)N[C@@H](Cc1ccccc1)C(=O)N[C@H](C(=O)N[C@@H](CCC(N)=O)C(=O)N[C@@H](Cc1c[nH]c2ccccc12)C(=O)N[C@@H](CC(C)C)C(=O)N[C@@H](CC(C)C)C(=O)N[C@@H](CO)C(=O)N[C@H](C(=O)O)[C@@H](C)O)C(C)C)C(=O)O)C(=O)O)C(=O)O)C(=O)O [Example 11, N^ϵ16-[(4S)-4-[[(4S)-4-[[(4S)-4-[[(4S)-4-acetamido-4-carboxybutanoyl]amino]-4-carboxybutanoyl]amino]-4-carboxybutanoyl]amino]-4-carboxybutanoyl]-[Imp1, His3, Glu15, Lys16, Glu21, Leu27, Ser28]-Glucagon] (Desaminohistidyl-SHGTFTSDYSKYLEK([γGlu-γGlu-γGlu-γGlu-Ac])RRAQEFVQWLLST-OH) | 98% |
| CC(=O)N[C@@H](CCC(=O)N[C@@H](CCC(=O)N[C@@H](CCC(=O)N[C@@H](CCC(=O)NCCCC[C@H](NC(=O)[C@H](C)NC(=O)[C@H](CCCNC(=N)N)NC(=O)[C@H](CCCNC(=N)N)NC(=O)[C@H](CO)NC(=O)[C@H](CCC(=O)O)NC(=O)[C@H](CC(C)C)NC(=O)[C@H](Cc1ccc(O)cc1)NC(=O)[C@H](CCCCN)NC(=O)[C@H](CO)NC(=O)[C@H](Cc1ccc(O)cc1)NC(=O)[C@H](CC(=O)O)NC(=O)[C@H](CO)NC(=O)[C@@H](NC(=O)[C@H](Cc1ccccc1)NC(=O)[C@@H](NC(=O)CNC(=O)[C@H](Cc1c[nH]cn1)NC(=O)[C@H](CO)NC(=O)CCc1c[nH]cn1)[C@@H](C)O)[C@@H](C)O)C(=O)N[C@@H](CCC(=O)O)C(=O)N[C@@H](Cc1ccccc1)C(=O)N[C@H](C(=O)N[C@@H](CCC(N)=O)C(=O)N[C@@H](Cc1c[nH]c2ccccc12)C(=O)N[C@@H](CC(C)C)C(=O)N[C@@H](CC(C)C)C(=O)N[C@@H](CO)C(=O)N[C@H](C(=O)O)[C@@H](C)O)C(C)C)C(=O)O)C(=O)O)C(=O)O)C(=O)O [Example 12, N^ϵ20-[(4S)-4-[[(4S)-4-[[(4S)-4-[[(4S)-4-acetamido-4-carboxybutanoyl]amino]-4-carboxybutanoyl]amino]-4-carboxybutanoyl]amino]-4-carboxybutanoyl]-[Imp1, His3, Glu15, Lys20, Glu21, Leu27, Ser28]-Glucagon] (Desaminohistidyl-SHGTFTSDYSKYLESRRAK([γGlu-γGlu-γGlu-γGlu-Ac])EFVQWLLST-OH) | 88% |
| CC(=O)N[C@@H](CCC(=O)N[C@@H](CCC(=O)N[C@@H](CCC(=O)N[C@@H](CCC(=O)NCC(=O)NCCCC[C@H](NC(=O)[C@@H](NC(=O)[C@H](Cc1ccccc1)NC(=O)[C@H](CCC(=O)O)NC(=O)[C@H](CCC(N)=O)NC(=O)[C@H](C)NC(=O)[C@H](CCCNC(=N)N)NC(=O)[C@H](CCCNC(=N)N)NC(=O)[C@H](CO)NC(=O)[C@H](CCC(=O)O)NC(=O)[C@H](CC(C)C)NC(=O)[C@H](Cc1ccc(O)cc1)NC(=O)[C@H](CCCCN)NC(=O)[C@H](CO)NC(=O)[C@H](Cc1ccc(O)cc1)NC(=O)[C@H](CC(=O)O)NC(=O)[C@H](CO)NC(=O)[C@@H](NC(=O)[C@H](Cc1ccccc1)NC(=O)[C@@H](NC(=O)CNC(=O)[C@H](Cc1c[nH]cn1)NC(=O)[C@H](CO)NC(=O)CCc1c[nH]cn1)[C@@H](C)O)[C@@H](C)O)C(C)C)C(=O)N[C@@H](Cc1c[nH]c2ccccc12)C(=O)N[C@@H](CC(C)C)C(=O)N[C@@H](CC(C)C)C(=O)N[C@@H](CO)C(=O)N[C@H](C(=O)O)[C@@H](C)O)C(=O)O)C(=O)O)C(=O)O)C(=O)O [Example 17, N^ϵ24-[2-[[(4S)-4-[[(4S)-4-[[(4S)-4-[[(4S)-4-acetamido-4-carboxybutanoyl]amino]-4-carboxybutanoyl]amino]-4-carboxybutanoyl]amino]-4-carboxybutanoyl]amino]acetyl]-[Imp1, His3, Glu15, Glu21, Lys24, Leu27, Ser28]-Glucagon] (Desaminohistidyl-SHGTFTSDYSKYLESRRAQEFVK([Gly-γGlu-γGlu-γGlu-γGlu-Ac])WLLST-OH) | 100% |
